Data on 28 compounds can be found in patent US20240239784A1, “INDOLE COMPOUNDS AND METHODS OF USE” (GENZYME CORPORATION, priority 2021, published 2024).

This test concerns NBD1. Kind of test: Aggregation analysis of NBD1 thermal stability by differential static light scattering (DSLS). Type of test: binding, Human. The conditions noted are these: compound at 100 μM; ΔTagg versus DMSO control. The method, then: Purified recombinant NBD1 was produced using previously described methods (A. Schmidt, J. L. Mendoza, P. J. Thomas (2011) Biochemical and Biophysical Approaches to Probe CFTR Structure (365-376) M. D. Amaral, K. Kunzelmann (eds.), Cysic Fibrosis, Methods in Molecular Biology 741, Springer Science+Business Media). The effect of test compounds on thermal stability of NBD1 was evaluated by differential static light scattering (DSLS) using the Harbinger Stargazer-384 instrument (Epiphyte Three, Toronto, Canada). Test compounds were dissolved and diluted to desired concentrations in 100% DMSO. The compounds or DMSO controls (100 nL) were stamped into wells of a […] low volume optical plate (Corning Inc., Corning, NY) using the Echo 555 acoustic liquid handler (Labcyte Inc., San Jose, CA).
NBD1 protein was diluted to 0.2 mg/ml in S200 buffer (50 mM Tris-HCl, 150 mM NaCl, 5 mM MgCl2, 2 mM ATP, 2 mM DTT, pH7.6) containing 1% glycerol. 10 uL of protein solution was aliquoted into the 384-well plate harboring the test compounds and 10 uL mineral oil was overlayed onto the protein solution, using the epMotion robotic liquid handler (Eppendorf North America, Hauppauge, NY). After placing into the Stargazer instrument, the plate was heated at 1° C. per minute to 70° C. Images were captured from 25° C. to 70° C. every 0.5° C. At the end of the experiment run, instrument software integrated image files and analyzed data automatically. A […] regression curve was generated for each well, representing the increase in light scattering over time. A temperature of aggregation (Tagg) was calculated based on the inflection point of the curve. To better compare data across experiments the average Tagg for DMSO control wells was calculated and subtracted from values for wells containing compounds to obtain a “ΔTagg” value. These ΔTagg values reflect stabilizing efficacy of the compounds.
As to `Cc1c(Oc2ccc(F)c(-c3ncc(C(C)(CCC(=O)O)c4ccccc4)[nH]3)c2)c(F)cc2[nH]ccc12` (stereo not shown) [Example 13, 4-(2-(2-Fluoro-5-((6-fluoro-4-methyl-1H-indol-5-yl)oxy)phenyl)-1H-imidazol-5-yl)-4-phenylpentanoic acid], the “DSLS NBD1/3D Human Stability delta-T (° C.) @ 100 (μM)” value (shortened to “DSLS NBD1/3D Human Stability delta-T”) is on record as “B (4-8° C.)”.
For `CS(=O)(=O)NC(=O)CCc1c(Oc2cccc(-c3nnc(Cc4ccccc4)[nH]3)c2)ccc2[nH]ccc12` [Example 59, 3-(5-(3-(5-Benzyl-4H-1,2,4-triazol-3-yl)phenoxy)-1H-indol-4-yl)-N-(methylsulfonyl)propanamide], the “DSLS NBD1/3D Human Stability delta-T” value was “B (4-8° C.)”.
To `O=C(O)Cc1c[nH]c2ccc(Oc3cccc(-c4nnc(Cc5ccccc5)[nH]4)c3)cc12` [Example 30, 2-(5-(3-(5-Benzyl-4H-1,2,4-triazol-3-yl)phenoxy)-1H-indol-3-yl)acetic acid] belongs “C (≤4° C.)”.
For the compound `O=C(Cc1c(Oc2cccc(-c3nnc(Cc4ccccc4)[nH]3)c2)ccc2[nH]ccc12)NS(=O)(=O)C(F)(F)F` [Example 60, 2-(5-(3-(5-Benzyl-4H-1,2,4-triazol-3-yl)phenoxy)-1H-indol-4-yl)-N-((trifluoromethyl)sulfonyl)acetamide], the “DSLS NBD1/3D Human Stability delta-T” value is “A (T ≥8° C.)”.
As to `CC(O)(c1ccccc1)c1cnc(-c2cccc(Oc3ccc4[nH]ccc4n3)c2)[nH]1` (stereo not shown) [Example 53, 1-(2-(3-((1H-Pyrrolo[3,2-b]pyridin-5-yl)oxy)phenyl)-1H-imidazol-5-yl)-1-phenylethan-1-ol], the “DSLS NBD1/3D Human Stability delta-T” value is “B (4-8° C.)”.
For `CNS(=O)(=O)c1c(Oc2ccc(F)c(-c3ncc(C(C)(O)c4ccccc4)[nH]3)c2)c(F)cc2[nH]ccc12` (stereo not shown) [Example 22, 6-Fluoro-5-(4-fluoro-3-(5-(1-hydroxy-1-phenylethyl)-1H-imidazol-2-yl)phenoxy)-N-methyl-1H-indole-4-sulfonamide] the value was “B (4-8° C.)”.
Regarding `CNC(=O)CNC(=O)c1c(Oc2cccc(-c3ncc(C(O)c4ccccc4)[nH]3)c2)ccc2[nH]ncc12` (stereo not shown) [Example 28, 5-(3-(5-(Hydroxy(phenyl)methyl)-1H-imidazol-2-yl)phenoxy)-N-(2-(methylamino)-2-oxoethyl)-1H-indazole-4-carboxamide], the “DSLS NBD1/3D Human Stability delta-T” value is reported as “B (4-8° C.)”.
To `CS(=O)(=O)c1c(Oc2cccc(-c3ncc(C(O)c4ccccc4)[nH]3)c2)c(F)cc2[nH]ccc12` (stereo not shown) [Example 14, (2-(3-((6-Fluoro-4-(methylsulfonyl)-1H-indol-5-yl)oxy)phenyl)-1H-imidazol-5-yl)(phenyl)methanol] belongs “A (T ≥8° C.)”; to `Nc1cnc(-c2nnc(Cc3ccccc3)[nH]2)cc1Oc1ccc2[nH]ccc2c1` [Example 44, 4-((1H-Indol-5-yl)oxy)-6-(5-benzyl-4H-1,2,4-triazol-3-yl)pyridin-3-amine], “B (4-8° C.)”.
To `CC(C)(O)c1nc(-c2cc(Oc3c(F)cc4[nH]ccc4c3S(C)(=O)=O)ccc2F)[nH]c1Cc1ccccc1` [Example 79, 2-(5-Benzyl-2-(2-fluoro-5-((6-fluoro-4-(methylsulfonyl)-1H-indol-5-yl)oxy)phenyl)-1H-imidazol-4-yl)propan-2-ol] belongs “B (4-8° C.)”; to `CC(O)(c1ccccc1)c1c[nH]c(-c2cc(Oc3c(F)cc4[nH]ccc4c3CC(F)F)ccc2F)n1` (stereo not shown) [Example 25, 1-(2-(5-((4-(2,2-Difluoroethyl)-6-fluoro-1H-indol-5-yl)oxy)-2-fluorophenyl)-1H-imidazol-4-yl)-1-phenylethan-1-ol], “B (4-8° C.)”; to `CNCCS(=O)(=O)c1c(Oc2cccc(-c3ncc(C(C)(O)c4ccccc4)[nH]3)c2)c(F)cc2[nH]ccc12` (stereo not shown) [Example 64, 1-(2-(3-((6-Fluoro-4-((2-(methylamino)ethyl)sulfonyl)-1H-indol-5-yl)oxy)phenyl)-1H-imidazol-5-yl)-1-phenylethan-1-ol], “A (T ≥8° C.)”.
For `Cc1c(Oc2ccc(F)c(-c3nc(C(C)(CO)c4ccccc4)c[nH]3)c2)c(F)cc2[nH]ccc12` (stereo not shown) [Example 77, 2-(2-(2-Fluoro-5-((6-fluoro-4-methyl-1H-indol-5-yl)oxy)phenyl)-1H-imidazol-4-yl)-2-phenylpropan-1-ol] the value was “B (4-8° C.)”; for `CN(C)CCNC(c1ccccc1)c1nnc(-c2cccc(Oc3ccc4[nH]ccc4n3)c2)[nH]1` (stereo not shown) [Example 24, N1-((5-(3-((1H-Pyrrolo[3,2-b]pyridin-5-yl)oxy)phenyl)-4H-1,2,4-triazol-3-yl)(phenyl)methyl)-N2,N2-dimethylethane-1,2-diamine], “B (4-8° C.)”; for `CC(=O)NCc1c(Oc2cccc(-c3nnc(Cc4ccccc4)[nH]3)c2)ccc2[nH]ccc12` [Example 50, N-((5-(3-(5-Benzyl-4H-1,2,4-triazol-3-yl)phenoxy)-1H-indol-4-yl)methyl)acetamide], “B (4-8° C.)”.
On to `COCC[S+]([O-])c1c(Oc2cccc(-c3ncc(C(C)(O)c4ccccc4)[nH]3)c2)c(F)cc2[nH]ccc12` (stereo not shown) [Example 62, 1-(2-(3-((6-Fluoro-4-((2-methoxyethyl)sulfinyl)-1H-indol-5-yl)oxy)phenyl)-1H-imidazol-5-yl)-1-phenylethan-1-ol], for which the “DSLS NBD1/3D Human Stability delta-T” value is “B (4-8° C.)”.
With `CN(C)CCNC(c1ccccc1)c1c[nH]c(-c2cccc(Oc3ccc4[nH]ccc4n3)c2)n1` (stereo not shown) [Example 54, N1-((2-(3-((1H-pyrrolo[3,2-b]pyridin-5-yl)oxy)phenyl)-1H-imidazol-5-yl)(phenyl)methyl)-N2,N2-dimethylethane-1,2-diamine], the “DSLS NBD1/3D Human Stability delta-T” value is recorded as “B (4-8° C.)”.
For `CC(O)(c1ccccc1)c1cnc(-c2cccc(Sc3ccc4[nH]ccc4c3)c2)[nH]1` (stereo not shown) [Example 39, 1-(2-(3-((1H-Indol-5-yl)thio)phenyl)-1H-imidazol-5-yl)-1-phenylethan-1-ol] the value was “C (≤4° C.)”; for `CC(O)(c1ccccc1)c1c[nH]c(-c2cc(Oc3c(F)cc4[nH]ccc4c3S(C)(=N)=O)ccc2F)n1` (stereo not shown) [Example 6, (6-fluoro-5-(4-fluoro-3-(4-(1-hydroxy-1-phenylethyl)-1H-imidazol-2-y1)phenoxy)-1H-indol-4-y1)(imino)(methyl)-16-sulfanone], “A (T ≥8° C.)”; for `O=S(=O)(c1ccccc1)c1cnc(-c2cccc(Oc3ccc4[nH]ccc4c3)c2)[nH]1` [Example 32, 5-(3-(5-(Phenylsulfonyl)-1H-imidazol-2-yl)phenoxy)-1H-indole], “B (4-8° C.)”.
To `O=C(O)c1c(Oc2cccc(-c3nnc(Cc4ccccc4)[nH]3)c2)ccc2[nH]ccc12` [Example 19, 5-(3-(5-Benzyl-4H-1,2,4-triazol-3-yl)phenoxy)-1H-indole-4-carboxylic acid] belongs “B (4-8° C.)”; to `c1ccc(Cc2coc(-c3cccc(Oc4ccc5[nH]ccc5c4)c3)n2)cc1` [Example 47, 2-(3-((1H-Indol-5-yl)oxy)phenyl)-4-benzyloxazole], “C (≤4° C.)”; to `OC(c1ccccc1)c1cnc(-c2cccc(Oc3ccc4[nH]ccc4n3)c2)[nH]1` (stereo not shown) [Example 52, (2-(3-((1H-Pyrrolo[3,2-b]pyridin-5-yl)oxy)phenyl)-1H-imidazol-5-yl)(phenyl)methanol], “B (4-8° C.)”.
For `CC(O)(c1ccccc1)c1cnc(-c2cccc(Oc3c(F)cc4[nH]ccc4c3CO)c2)[nH]1` (stereo not shown) [Example 8, 1-(2-(3-((6-Fluoro-4-(hydroxymethyl)-1H-indol-5-yl)oxy)phenyl)-1H-imidazol-5-yl)-1-phenylethan-1-ol] the value was “A (T ≥8° C.)”.
Consider `O=C(O)c1c(Oc2cccc(-c3ncc(C(O)c4ccccc4)[nH]3)c2)ccc2[nH]ncc12` (stereo not shown) [Example 27, 5-(3-(5-(Hydroxy(phenyl)methyl)-1H-imidazol-2-yl)phenoxy)-1H-indazole-4-carboxylic acid], for which the “DSLS NBD1/3D Human Stability delta-T” value is given as “C (≤4° C.)”.
For `c1ccc(Cc2nnc(-c3cccc(Oc4ccc5[nH]cc6c5c4CNCC6)c3)[nH]2)cc1` [Example 46, 9-(3-(5-Benzyl-4H-1,2,4-triazol-3-yl)phenoxy)-2,3,4,6-tetrahydro-1H-azepino[5,4,3-cd]indole] the value was “C (≤4° C.)”; for `OCc1c(Oc2cccc(-c3nc(Cc4ccccc4)cs3)c2)ccc2[nH]ccc12` [Example 48, (5-(3-(4-Benzylthiazol-2-yl)phenoxy)-1H-indol-4-yl)methanol], “C (≤4° C.)”; for `CC(O)(c1ccccc1)c1cnc(-c2cccc(Oc3cc(F)c4[nH]ccc4c3)c2)[nH]1` (stereo not shown) [Example 69, 1-(2-(3-((7-Fluoro-1H-indol-5-yl)oxy)phenyl)-1H-imidazol-5-yl)-1-phenylethan-1-ol], “B (4-8° C.)”.
